Patent publication US4962109A, “Insecticidally and acaricidally active pyrimidine esters and intermediates therefor” (Imperial Chemical Industries PLC, priority 1985, dated 1990)

Experiments:
Assay type in all cases: in vivo
[1] = system: Tetranychus urticae (spider mites - adult); test: Contact test on spider mites - adult (TUa), French bean leaf, mortality; conditions: 72 h, contact, 3 days, read-out: TUa grading of mortality
Procedure: (§1) The activity of the Product was determined using a variety of insect pests. The Product was used in the form of liquid preparations containing 500, 250 or 100 parts per million (ppm) by weight of the Product. The preparations were made by dissolving the Product in acetone and diluting the solutions with water containing 0.01% by weight of a wetting agent sold under the trade name "LISSAPOL" NX until the liquid preparations contained the required concentration of the Product. "Lissapol" is a Registered Trade Mark.
(§2) The test procedure adopted with regard to each pest was basically the same and comprised supporting a number of the pests on a medium which was usually a host plant or a foodstuff on which the pests feed, and treating either or both the pests and the medium with the preparations. The mortality of the pests was then assessed at periods usually varying from one to three days after the treatment.
(§3) The results of the tests are given in Table III for each of the Products, at the rate in parts per million given in the second column as a grading of mortality designated as A, B or C wherein A indicates 80-100% mortality or knockdown, B indicates 50-79% mortality or knockdown and C indicates less than 50% mortality or knockdown.

[2] = system: Tetranychus urticae (spider mites - ova); test: Contact test on spider mites - ova (TUe), French bean leaf, mortality; conditions: 144 h, contact, 6 days, read-out: TUe grading of mortality
Procedure: as §1, §2, §3

[3] = system: Musca domestica (houseflies - adults); test: Knockdown test on houseflies - adults (MD/KD), Cotton wool/sugar; conditions: 500 ppm, 4 hours, read-out: MD/KD grading of knockdown
Procedure: as §1, §2
In the case of the species Musca domestica (housefly), additional tests to determine the knockdown effect of the compounds were performed. PG,163
as §3

[4] = system: Diabrotica balteata (rootworm larvae); test: Residual test on rootworm larvae (DB), Filter paper/maize seed, mortality; conditions: 48 h, residual, 2 days, read-out: DB grading of mortality
Procedure: as §1, §2, §3

[5] = system: Myzus persicae (aphids); test: Contact test on aphids (MP), Chinese Cabbage leaf, mortality; conditions: 72 h, contact, 3 days, read-out: MP grading of mortality
Procedure: as §1, §2, §3

[6] = system: Nephotettix cincticeps (green leaf hopper - nymphs); test: Contact test on green leaf hopper nymphs (NC), Rice plant, mortality; conditions: 48 h, 500 ppm, contact, 2 days, read-out: NC grading of mortality
Procedure: as §1, §2, §3
NC Nephotettix cincticeps

[7] = system: Musca domestica (houseflies - adults); test: Contact test on houseflies - adults (MD), Cotton wool/sugar, mortality; conditions: 72 h, 500 ppm, contact, 3 days, read-out: MD grading of mortality
Procedure: as §1, §2, §3

[8] = system: Spodoptera exigua (lesser army worm - larvae); test: Residual test on lesser army worm larvae (SP), Cotton leaf, mortality; conditions: 48 h, residual, 2 days, read-out: SP grading of mortality
Procedure: as §1, §2, §3
(lesser army worm - larvae)

[9] = system: Heliothis virescens (tobacco budworm - larvae); test: Residual test on tobacco budworm larvae (HV), Cotton leaf, mortality; conditions: 48 h, read-out: HV grading of mortality
Procedure: as §1, §2, §3
(tobacco budworm - larvae)

[10] = system: Blattella germanica (cockroach nymphs); test: Contact test on cockroach nymphs (BG/C), Plastic pot, mortality; conditions: 48 h, contact, 2 days, read-out: BG/C grading of mortality
Procedure: as §1, §2, §3
BG/C Blattella germanica

Row | SMILES | mortality at 500 ppm [1] | mortality at 500 ppm [2] | pest or weed control at 500 ppm [3] | mortality at 500 ppm [4] | mortality at 500 ppm [5] | mortality at 500 ppm [6] | mortality at 500 ppm [7] | mortality at 500 ppm [8] | mortality at 500 ppm [9] | mortality at 500 ppm [10] | mortality at 100 ppm ([1]; 100 ppm) | mortality at 100 ppm ([2]; 100 ppm) | mortality at 100 ppm ([4]; 100 ppm) | mortality at 100 ppm ([5]; 100 ppm) | mortality at 100 ppm ([8]; 100 ppm) | mortality at 100 ppm [9] | mortality at 100 ppm ([10]; 100 ppm)
1 | C[C@@H](OC(=O)[C@@H](c1cnc(N(C)C)nc1)C(C)(C)C)c1cccc(Oc2ccccc2)n1 (racemic) [Compound 198, (RS)-1-(6-phenoxypyrid-2-yl)ethyl (RS)-2-[2-(N,N-dimethylamino)pyrimidin-5-yl]-3,3-dimethylbutanoate] | 80 to 100% | < 50% | 80 to 100% | 80 to 100% | 80 to 100% | 80 to 100% | < 50% | 80 to 100% | 80 to 100% | 80 to 100% | – | – | – | – | – | – | –
2 | COCc1c(F)c(F)c(COC(=O)C(c2cnc(-c3ccccc3)nc2)C(C)(C)C)c(F)c1F (racemic) [Compound 161, 2,3,5,6-tetrafluoro-4-(methoxymethyl)benzyl (RS)-2-(2-phenylpyrimidin-5-yl)-3,3-dimethylbutanoate] | 80 to 100% | 80 to 100% | 80 to 100% | 50 to 79% | 80 to 100% | 80 to 100% | 80 to 100% | 80 to 100% | < 50% | 50 to 79% | – | – | – | – | – | – | –
3 | Cc1c(COC(=O)C(c2cnc(C(C)(C)C)nc2)C(C)(C)C)cccc1-c1ccccc1 (racemic) [Compound 3, 2-methyl-3-phenylbenzyl (RS)-2-[2-(1,1-dimethylethyl)pyrimidin-5-yl]-3,3-dimethylbutanoate] | 80 to 100% | 80 to 100% | < 50% | < 50% | < 50% | 80 to 100% | < 50% | 80 to 100% | 50 to 79% | < 50% | – | – | – | – | – | – | –
4 | COCc1c(F)c(F)c(COC(=O)C(c2cnc(C3(C)CC3)nc2)C(C)(C)C)c(F)c1F (racemic) [Compound 139, 2,3,5,6-tetrafluoro-4-(methoxymethyl)benzyl (RS)-2-[2-(1-methylcyclopropyl)pyrimidin-5-yl]-3,3-dimethylbutanoate] | 80 to 100% | < 50% | 80 to 100% | < 50% | 80 to 100% | 80 to 100% | 80 to 100% | 80 to 100% | 80 to 100% | 80 to 100% | – | – | – | – | – | – | –
5 | COCc1c(F)c(F)c(COC(=O)C(c2cnc(C(F)(F)F)nc2)C(C)(C)C)c(F)c1F (racemic) [Compound 41, 2,3,5,6-tetrafluoro-4-(methoxymethyl)benzyl (RS)-2-[2-(trifluoromethyl)pyrimidin-5-yl]-3,3-dimethylbutanoate] | 80 to 100% | < 50% | 80 to 100% | < 50% | 80 to 100% | 80 to 100% | 80 to 100% | 80 to 100% | 80 to 100% | 80 to 100% | – | – | – | – | – | – | –
6 | CC(C)(C)c1ncc(C(C(=O)OCc2c(F)c(F)c(COc3ccccc3)c(F)c2F)C(C)(C)C)cn1 (racemic) [Compound 192, 2,3,5,6-tetrafluoro-4-(phenoxymethyl)benzyl (RS)-2-[2-(1,1-dimethylethyl)pyrimidin-5-yl]-3,3-dimethylbutanoate] | 80 to 100% | < 50% | < 50% | < 50% | 50 to 79% | < 50% | < 50% | 80 to 100% | < 50% | < 50% | – | – | – | – | – | – | –
7 | C#CCc1c(F)c(F)c(COC(=O)C(c2cnc(C(C)(C)C)nc2)C2CC2)c(F)c1F (racemic) [Compound 91, 2,3,5,6-tetrafluoro-4-(prop-2-yn-1-yl)benzyl (RS)-2-[2-(1,1-dimethylethyl)pyrimidin-5-yl]-2-cyclopropylacetate] | 80 to 100% | 80 to 100% | 80 to 100% | 80 to 100% | 80 to 100% | 80 to 100% | 80 to 100% | 80 to 100% | 80 to 100% | 80 to 100% | – | – | – | – | – | – | –
8 | COCc1c(F)c(F)c(COC(=O)C(c2cnc(C3(C)CCCCC3)nc2)C(C)(C)C)c(F)c1F (racemic) [Compound 207, 2,3,5,6-tetrafluoro-4-(methoxymethyl)benzyl (RS)-2-[2-(1-methylcyclohexyl)pyrimidin-5-yl]-3,3-dimethylbutanoate] | 80 to 100% | < 50% | 80 to 100% | < 50% | 80 to 100% | 80 to 100% | < 50% | < 50% | < 50% | < 50% | – | – | – | – | – | – | –
9 | COc1c(F)c(COC(C)C)c(F)c(F)c1COC(=O)C(c1cnc(C(C)(C)C)nc1)C(C)(C)C (racemic) [Compound 190, 2,3,5-trifluoro-6-methoxy-4-[(1-methyl)ethoxy]methylbenzyl (RS)-2-[2-(1,1-dimethylethyl)pyrimidin-5-yl]-3,3-dimethylbutanoate] | 80 to 100% | < 50% | 80 to 100% | < 50% | 80 to 100% | 80 to 100% | < 50% | 80 to 100% | 80 to 100% | < 50% | – | – | – | – | – | – | –
10 | CC(C)(C)c1ncc(C(C(=O)OCc2c(F)c(F)c(CCl)c(F)c2F)C(C)(C)C)cn1 (racemic) [Compound 167, 4-chloromethyl-2,3,5,6-tetrafluorobenzyl (RS)-2-[2-(1,1-dimethylethyl)pyrimidin-5-yl]-3,3-dimethylbutanoate] | 80 to 100% | 80 to 100% | < 50% | 80 to 100% | 80 to 100% | – | < 50% | 80 to 100% | 80 to 100% | < 50% | – | – | – | – | – | – | –
11 | CCC(C)(C)C(C(=O)OCc1c(F)c(F)c(COC)c(F)c1F)c1cnc(C(C)(C)C)nc1 (racemic) [Compound 210, 4-methoxymethyl-2,3,5,6-tetrafluorobenzyl (RS)-2-[2-(1,1-dimethylethyl)-pyrimidin-5-yl]-3,3-dimethylpentanoate] | – | – | – | – | – | – | – | – | – | – | 80 to 100% | 80 to 100% | < 50% | < 50% | < 50% | < 50% | < 50%
12 | CC(C)(C)c1ncc(C(C(=O)OCN2C(=O)C3=C(CCCC3)C2=O)C(C)(C)C)cn1 (racemic) [Compound 6, N-3,4,5,6-tetrahydrophthalimidomethyl (RS)-2-[2-(1,1-dimethylethyl)pyrimidin-5-yl]-3,3-dimethylbutanoate] | 80 to 100% | – | < 50% | 50 to 79% | < 50% | < 50% | < 50% | < 50% | < 50% | < 50% | – | – | – | – | – | – | –
